{"source": "patent US10952433B2", "about": "“Solutions for enhancing the effectiveness of insecticides and fungicides on living plants and related methods” (priority 2015, dated 2021)", "key": {"[1]": {"system": "lepidopteran larvae: cabbage loopers (Trichoplusia ni) and beet armyworms (Spodoptera exigua)", "format": "in vivo", "settings": "plants", "protocol": "In a first group of tests, the results of which are shown in Table 7 (pages 22-24), romaine lettuce plants two to three inches in height were exposed to 10 milliliters of solution applied to each plant using a low volume trigger spray. With respect to containers 0-7, ten plants were employed per container, nine were treated and one was an internal control. In containers M-H, ten plants per container were used, five were treated and 5 were internal controls. Each container was infested with 30 lepidopteran larvae between the 5th and 6th instar development. Fifteen cabbage loopers (Trichoplusia ni) and 15 beet armyworms (Spodoptera exigua) were used to infest the romaine lettuce plants. Visual evaluations for the average percentage total surface area damage were taken 24 hours after infestation. Percentage damage was evaluated by 5% increments for total damage across all plant leaves.\nAs indicated in the first column of Table 7, in some tests, no insecticide was employed and there were two controls; a no water control and a no dye control. A wide variety of insecticides selected from the following group were tested: Chlorantranilopril, Acephate, Methoxyfenozide, Spinosad, Permethrin, and Indoxacarb. The product concentration is shown in PPM in column 2. Column 3 is divided into two subunits, the first being CO3 and the second, PO4. In all instances in columns 3, 4 and 5 and their sub-columns, the concentrations used were 200:1. The fourth column employed amine oxide, but no buffer. […] Two sub-columns each are represented for CO3 and PO4. The final column is a reading of the Percent Lepidopteran Damage to the romaine lettuce plants after 24 hours.\nIn addition to testing the buffered amine system of the present invention with the two amine oxides identified as CO3 and PO4 and their use with 12 carbon length and a mixture of 12 and 18 designated 1218 for comparative data purposes various differences were created in the testing. Some of the tests were performed with (a) no insecticide along with (b) no amine oxide for CO3 and PO4 and (c) with no buffer, but with amine oxide. Also, tests were run using no insecticide and no water control with no foliar application being made. Tests with no insecticide and no dye control employed foliar application of water only. The tests were conducted with all of the testing on the buffer alone, the amine oxide alone and the buffered amine oxide system of the present invention in the concentration of 200:1."}, "[2]": {"system": "lepidopteran larvae: cabbage loopers (Trichoplusia ni) and beet armyworms (Spodoptera exigua)", "format": "in vivo", "settings": "leaf discs", "text": "A second series of tests involved romaine lettuce discs approximately ⅝ inch in diameter. (L. sativa). They were dipped in the treatment solution one second per disc. This test involved the 5/5 configuration, i.e., 5 treated and 5 untreated. The infestation involved […] lepidopteran larvae at the 3rd to 4th instar development per container: four cabbage loopers (Trichoplusia ni), and four beet armyworms (Spodoptera exigua) were employed. The test containers were placed in a dark humidity cabinet at 15° C. and 80% relative humidity. Visual evaluations of the average percent damage were taken at 24, 48 and 72 hours after the initiation of infestation. Damage was evaluated in 5% increments based on total disc area.\nIn the tests reported in Table 8 pages 29-32), romaine lettuce leaf discs ⅝″ in diameter (L. sativa) were dipped in the treatment solution for about one second per disc. Infestation was provided by eight lepidopteran larvae at the 3rd to 4th instar development per container. Four cabbage loopers (Trichoplusia ni) and four beet armyworms (Spodoptera exigua) were employed in infestation. The containers were placed in a dark humidity cabinet at 15° C. and 80% relative humidity. Visual observations of the average percent damage was taken at 24, 48 and 72 hours after infestation. Damage evaluation was by 5% increments over the total disc area.\nIn the tests results provided in Table 8, the identity and concentrations of the insecticide was identical to the tests results reported in Table 7. The concentration of 200:1 was employed for the no amino oxide, no buffer and buffered amine oxide system. This series of tests, however, reported how the percent damage changed with time at the respective 24, 48 and 72 hour intervals."}, "[3]": {"settings": "insecticide + CO3 buffer 200:1, no amine oxide, PPM: Chlorantranilopril 60, Acephate 70, Methoxyfenozide 100, Spinosad 30, Permethrin 10, Indoxacarb 50"}, "[4]": {"settings": "insecticide + PO4 buffer 200:1, no amine oxide, PPM: Chlorantranilopril 60, Acephate 70, Methoxyfenozide 100, Spinosad 30, Permethrin 10, Indoxacarb 50"}, "[5]": {"settings": "insecticide + amine oxide 12, no buffer, 200:1, PPM: Chlorantranilopril 60, Acephate 70, Methoxyfenozide 100, Spinosad 30, Permethrin 10, Indoxacarb 50"}, "[6]": {"settings": "insecticide + amine oxide 1218, no buffer, 200:1, PPM: Chlorantranilopril 60, Acephate 70, Methoxyfenozide 100, Spinosad 30, Permethrin 10, Indoxacarb 50"}, "[7]": {"settings": "insecticide + buffered amine oxide system CO3, 12, 200:1, PPM: Chlorantranilopril 60, Acephate 70, Methoxyfenozide 100, Spinosad 30, Permethrin 10, Indoxacarb 50"}, "[8]": {"settings": "insecticide + buffered amine oxide system CO3, 1218, 200:1, PPM: Chlorantranilopril 60, Acephate 70, Methoxyfenozide 100, Spinosad 30, Permethrin 10, Indoxacarb 50"}, "[9]": {"settings": "insecticide + buffered amine oxide system PO4, 12, 200:1, PPM: Chlorantranilopril 60, Acephate 70, Methoxyfenozide 100, Spinosad 30, Permethrin 10, Indoxacarb 50"}, "[10]": {"settings": "insecticide + buffered amine oxide system PO4, 1218, 200:1, PPM: Chlorantranilopril 60, Acephate 70, Methoxyfenozide 100, Spinosad 30, Permethrin 10, Indoxacarb 50"}, "[11]": {"settings": "insecticide alone, highest, PPM: Chlorantranilopril 120, Acephate 140, Methoxyfenozide 200, Spinosad 60, Permethrin 20, Indoxacarb 100"}, "[12]": {"settings": "insecticide alone, increased, PPM: Chlorantranilopril 90, Acephate 105, Methoxyfenozide 150, Spinosad 45, Permethrin 15, Indoxacarb 75"}, "[13]": {"settings": "insecticide alone, PPM: Chlorantranilopril 60, Acephate 70, Methoxyfenozide 100, Spinosad 30, Permethrin 10, Indoxacarb 50"}}, "note": "Where two headings read alike, the source gives them in different places."}
{"smiles": "CNC(=O)c1cc(Cl)cc(C)c1NC(=O)c1cc(Br)nn1-c1ncccc1Cl", "note": "[Chlorantranilopril]", "values": [{"measurement": "Percent Lepidopteran Damage to Romaine Lettuce 24 hr", "setting": "[1]; [3]", "value": 13.5, "unit": "%"}, {"measurement": "Percent Lepidopteran Damage to Romaine Lettuce 24 hr", "setting": "[1]; [4]", "value": 9.0, "unit": "%"}, {"measurement": "Percent Lepidopteran Damage to Romaine Lettuce 24 hr", "setting": "[1]; [5]", "value": 9.0, "unit": "%"}, {"measurement": "Percent Lepidopteran Damage to Romaine Lettuce 24 hr", "setting": "[1]; [6]", "value": 5.5, "unit": "%"}, {"measurement": "Percent Lepidopteran Damage to Romaine Lettuce 24 hr", "setting": "[1]; [7]", "value": 2.5, "unit": "%"}, {"measurement": "Percent Lepidopteran Damage to Romaine Lettuce 24 hr", "setting": "[1]; [8]", "value": 2.5, "unit": "%"}, {"measurement": "Percent Lepidopteran Damage to Romaine Lettuce 24 hr", "setting": "[1]; [9]", "value": 4.0, "unit": "%"}, {"measurement": "Percent Lepidopteran Damage to Romaine Lettuce 24 hr", "setting": "[1]; [10]", "value": 0.0, "unit": "%"}, {"measurement": "Percent Lepidopteran Damage to Romaine Lettuce 24 hr", "setting": "[1]; [11]", "value": 8.5, "unit": "%"}, {"measurement": "Percent Lepidopteran Damage to Romaine Lettuce 24 hr", "setting": "[1]; [12]", "value": 8.2, "unit": "%"}, {"measurement": "Percent Lepidopteran Damage to Romaine Lettuce 24 hr", "setting": "[1]; [13]", "value": 10.5, "unit": "%"}, {"measurement": "Percent Lepidopteran Damage to Romaine Lettuce 24 hr", "setting": "[2]; [3]", "value": 13.0, "unit": "%"}, {"measurement": "Percent Lepidopteran Damage to Romaine Lettuce 24 hr", "setting": "[2]; [4]", "value": 14.0, "unit": "%"}, {"measurement": "Percent Lepidopteran Damage to Romaine Lettuce 24 hr", "setting": "[2]; [5]", "value": 4.5, "unit": "%"}, {"measurement": "Percent Lepidopteran Damage to Romaine Lettuce 24 hr", "setting": "[2]; [6]", "value": 10.5, "unit": "%"}, {"measurement": "Percent Lepidopteran Damage to Romaine Lettuce 24 hr", "setting": "[2]; [7]", "value": 3.0, "unit": "%"}, {"measurement": "Percent Lepidopteran Damage to Romaine Lettuce 24 hr", "setting": "[2]; [8]", "value": 1.0, "unit": "%"}, {"measurement": "Percent Lepidopteran Damage to Romaine Lettuce 24 hr", "setting": "[2]; [9]", "value": 4.5, "unit": "%"}, {"measurement": "Percent Lepidopteran Damage to Romaine Lettuce 24 hr", "setting": "[2]; [10]", "value": 6.5, "unit": "%"}, {"measurement": "Percent Lepidopteran Damage to Romaine Lettuce 24 hr", "setting": "[2]; [11]", "value": 9.5, "unit": "%"}, {"measurement": "Percent Lepidopteran Damage to Romaine Lettuce 24 hr", "setting": "[2]; [12]", "value": 7.5, "unit": "%"}, {"measurement": "Percent Lepidopteran Damage to Romaine Lettuce 24 hr", "setting": "[2]; [13]", "value": 4.5, "unit": "%"}, {"measurement": "Percent Lepidopteran Damage to Romaine Lettuce 48 hr", "setting": "[2]; [3]", "value": 17.5, "unit": "%"}, {"measurement": "Percent Lepidopteran Damage to Romaine Lettuce 48 hr", "setting": "[2]; [4]", "value": 22.5, "unit": "%"}, {"measurement": "Percent Lepidopteran Damage to Romaine Lettuce 48 hr", "setting": "[2]; [5]", "value": 8.0, "unit": "%"}, {"measurement": "Percent Lepidopteran Damage to Romaine Lettuce 48 hr", "setting": "[2]; [6]", "value": 17.5, "unit": "%"}, {"measurement": "Percent Lepidopteran Damage to Romaine Lettuce 48 hr", "setting": "[2]; [7]", "value": 5.0, "unit": "%"}, {"measurement": "Percent Lepidopteran Damage to Romaine Lettuce 48 hr", "setting": "[2]; [8]", "value": 2.0, "unit": "%"}, {"measurement": "Percent Lepidopteran Damage to Romaine Lettuce 48 hr", "setting": "[2]; [9]", "value": 12.5, "unit": "%"}, {"measurement": "Percent Lepidopteran Damage to Romaine Lettuce 48 hr", "setting": "[2]; [10]", "value": 12.5, "unit": "%"}, {"measurement": "Percent Lepidopteran Damage to Romaine Lettuce 48 hr", "setting": "[2]; [11]", "value": 17.5, "unit": "%"}, {"measurement": "Percent Lepidopteran Damage to Romaine Lettuce 48 hr", "setting": "[2]; [12]", "value": 14.0, "unit": "%"}, {"measurement": "Percent Lepidopteran Damage to Romaine Lettuce 48 hr", "setting": "[2]; [13]", "value": 9.0, "unit": "%"}, {"measurement": "Percent Lepidopteran Damage to Romaine Lettuce 72 hr", "setting": "[2]; [3]", "value": 19.5, "unit": "%"}, {"measurement": "Percent Lepidopteran Damage to Romaine Lettuce 72 hr", "setting": "[2]; [4]", "value": 24.5, "unit": "%"}, {"measurement": "Percent Lepidopteran Damage to Romaine Lettuce 72 hr", "setting": "[2]; [5]", "value": 8.5, "unit": "%"}, {"measurement": "Percent Lepidopteran Damage to Romaine Lettuce 72 hr", "setting": "[2]; [6]", "value": 18.5, "unit": "%"}, {"measurement": "Percent Lepidopteran Damage to Romaine Lettuce 72 hr", "setting": "[2]; [7]", "value": 5.0, "unit": "%"}, {"measurement": "Percent Lepidopteran Damage to Romaine Lettuce 72 hr", "setting": "[2]; [8]", "value": 2.0, "unit": "%"}, {"measurement": "Percent Lepidopteran Damage to Romaine Lettuce 72 hr", "setting": "[2]; [9]", "value": 13.0, "unit": "%"}, {"measurement": "Percent Lepidopteran Damage to Romaine Lettuce 72 hr", "setting": "[2]; [10]", "value": 12.5, "unit": "%"}, {"measurement": "Percent Lepidopteran Damage to Romaine Lettuce 72 hr", "setting": "[2]; [11]", "value": 17.5, "unit": "%"}, {"measurement": "Percent Lepidopteran Damage to Romaine Lettuce 72 hr", "setting": "[2]; [12]", "value": 15.0, "unit": "%"}, {"measurement": "Percent Lepidopteran Damage to Romaine Lettuce 72 hr", "setting": "[2]; [13]", "value": 9.0, "unit": "%"}]}
